# Experimental data as given in patent US11666658B2, “Rifamycin analogs and antibody-drug conjugates thereof” (Regeneron Pharmaceuticals, Inc., priority 2018, dated 2023).
# “Also recorded” adds a separate entry of the source.
# Assays:
# Type in all cases: cell-based, Staphylococcus aureus
# S. aureus NRS384 [1] = assay: Broth minimum inhibitory concentration (MIC) assay 1, S. aureus growth inhibition; conditions: S. aureus NRS384 in TSB, 24 h at 37° C., OD600 nm; for MIC: Staphylococcus aureus
# Protocol: To test the potency of rifamycin analogs of the disclosure in vitro, a broth growth inhibition assay was developed. For the assay, S. aureus NRS384 was grown in Tryptic Soy Broth (TSB) overnight, then sub-cultured 1:50 in fresh TSB and grown for an additional two hours. The culture was then pelleted via centrifugation and washed twice in PBS. The culture was then diluted to 1×10^4 cfu/mL in TSB and 50 μL of the suspension was added per well to a 96 well microtiter dish in duplicate. A dilution series of the indicated antibiotic (an analog according to the disclosure or a previously known analog Rifampicin) was added 1:1 for a final starting concentration of 1×10^−5 M with 1:3 dilutions. The plates were incubated at 37° C. with shaking for 24 h and then the OD600 nm was read on a Spectramax i3 Minimax 300.
# A plot of the S. aureus inhibition assay conducted with rifamycin analogs according to the disclosure is shown as FIG. 1.
# [2] = test system: intracellular S. aureus NRS384 in THP-1 macrophages; assay: Intracellular killing assay 1 (rifamycin analogs, S. aureus in THP-1 macrophages); conditions: for MIC: Staphylococcus aureus, NRS384, lowest concentration that resulted in intracellular S. aureus eradication
# Protocol: (§1) THP-1 monocytic cell line was grown in media (RMPI+10% FBS+1% Penicillin/Streptomycin), then seeded at a density of 1e5 cells/well in a 96 well plate and differentiated into macrophages for three days prior to infection using 200 nM PMA. An overnight culture of S. aureus NRS384 was grown in RPMI, washed twice with PBS and resuspended at 1e7 cfu/mL in PBS. THP-1 were washed with warm media (RMPI without FBS) to remove the Penicillin/Streptomycin and then infected with the S. aureus suspension at a multiplicity of infection of 10:1 (S. aureus: macrophages). Plates were spun at 300×g for 5 minutes to synchronize adhesion of the bacteria, then incubated at 37° C. for 2 hours. Free-floating bacteria were removed by washing 2× with warm media and remaining extracellular S. aureus were killed by addition of media containing gentamicin (50 ug/mL). After 1 h, media was aspirated and the indicated compound was added to infected macrophages in media containing 50 µg/mL gentamicin to prevent extracellular growth of S. aureus. After 2 h, plates were washed 2× with warm RPMI without FBS, and 100 ul of THP-1 lysis buffer (0.1% Triton in PBS) was added to each well. S. aureus survival was enumerated by colony forming units through serial dilution and plating onto TSA.
# S. aureus NRS384 [3] = assay: Broth minimum inhibitory concentration (MIC) assay 2; conditions: Staphylococcus aureus; S. aureus NRS384 in TSB, 24 hours at 37° C., OD600; median of at least two independent experiments; read-out: S. aureus Broth MIC
# Protocol: To test the potency of rifamycin analogs of the disclosure in vitro, a broth growth inhibition assay was developed. For the assay, S. aureus NRS384 was grown in Tryptic Soy Broth (TSB) overnight, then sub-cultured 1:50 in fresh TSB and grown for an additional two hours. The culture was then pelleted via centrifugation and washed twice in PBS. The culture was then diluted to 1×10^6 cfu/mL in TSB and 100 μL of the suspension was added per well to a 2 mL dilution plate in triplicate. […] The plates were sealed and incubated at 37° C. with shaking for 24 hours, then 150 μL of each sample was added to 96 well microtiter plates and the OD600 nm was read on a Spectramax i3 Minimax 300.
# The broth MIC experiments were assessed in at least two independent experiments and the median value is captured below unless indicated otherwise.
# [4] = test system: intracellular S. aureus NRS384 in THP-1 macrophages; assay: Intracellular killing assay 2 (rifamycin analogs, S. aureus in THP-1 macrophages); conditions: Staphylococcus aureus, NRS384, 2 h; lowest concentration giving intracellular S. aureus below limit of detection (50 cfu/mL) in THP-1 macrophages; median of at least two experiments; read-out: S. aureus Intracellular killing MIC
# Protocol: as §1, with “[…] The compounds were” for “After 1 h, media was aspirated and the indicated compound was”, “added” for “added to infected macrophages”, “hours,” for “h,”
# The intracellular MIC value indicated represents the median value of at least two independent experiments, unless indicated otherwise.
MIC (S. aureus NRS384 [1]),S. aureus Broth MIC (S. aureus NRS384 [1]),MIC (S. aureus NRS384 [3]),Compound,intracellular S. aureus killing capacity compared to rifampicin (in words) [2],MIC ([2]; 2 h with compound),"Intracellular killing MIC ([2]; lowest concentration that resulted in intracellular S. aureus eradication, 2 h with compound)",MIC [4]
0.041 µM,,,CNCCOc1ccc2nc3c4c5c6c(C)c(O)c4c(=O)c(c-3oc2c1)NC(=O)/C(C)=C\C=C\[C@H](C)[C@H](O)[C@@H](C)[C@@H](O)[C@@H](C)[C@H](OC(C)=O)[C@H](C)[C@@H](OC)/C=C/O[C@@](C)(O6)C5=O [Analog 16d],increased intracellular S. aureus killing capacity compared to rifampicin,1 µM,,
0.0046 µM,,,CO[C@H]1/C=C/O[C@@]2(C)Oc3c(C)c(O)c4c(=O)c(c5oc6cc(OCCN)ccc6nc-5c4c3C2=O)NC(=O)/C(C)=C\C=C\[C@H](C)[C@H](O)[C@@H](C)[C@@H](O)[C@@H](C)[C@H](OC(C)=O)[C@@H]1C [Analog 16e],increased intracellular S. aureus killing capacity compared to rifampicin,1 µM,,
0.0015 µM,,,CO[C@H]1/C=C/O[C@@]2(C)Oc3c(C)c(O)c4c(=O)c(c5oc6cc(OCCN(C)C)ccc6nc-5c4c3C2=O)NC(=O)/C(C)=C\C=C\[C@H](C)[C@H](O)[C@@H](C)[C@@H](O)[C@@H](C)[C@H](OC(C)=O)[C@@H]1C [Analog 16a],increased intracellular S. aureus killing capacity compared to rifampicin; also recorded: highest activity,0.04 µM,,
,,1 µM,CO[C@H]1/C=C/O[C@@]2(C)Oc3c(C)c(O)c4c(=O)c(c5oc6cc(OCCN(C(C)C)C(C)C)ccc6nc-5c4c3C2=O)NC(=O)/C(C)=C\C=C\[C@H](C)[C@H](O)[C@@H](C)[C@@H](O)[C@@H](C)[C@H](OC(C)=O)[C@@H]1C [Analog 16u],,,,1 µM
,,0.000977 µM,CO[C@H]1/C=C/O[C@@]2(C)Oc3c(C)c(O)c4c(=O)c(c5oc6cc(OCCNC(C)=O)ccc6nc-5c4c3C2=O)NC(=O)/C(C)=C\C=C\[C@H](C)[C@H](O)[C@@H](C)[C@@H](O)[C@@H](C)[C@H](OC(C)=O)[C@@H]1C [Analog 16x],,,,> 1 µM
,,0.0156 µM,CO[C@H]1/C=C/O[C@@]2(C)Oc3c(C)c(O)c4c(=O)c(c5oc6cc(OCCN7CCN(C)CC7)ccc6nc-5c4c3C2=O)NC(=O)/C(C)=C\C=C\[C@H](C)[C@H](O)[C@@H](C)[C@@H](O)[C@@H](C)[C@H](OC(C)=O)[C@@H]1C [Analog 16h],,,,1 µM
,,0.0625 µM,CO[C@H]1/C=C/O[C@@]2(C)Oc3c(C)c(O)c4c(=O)c(c5oc6cc(OCC7CCN(C)C7)ccc6nc-5c4c3C2=O)NC(=O)/C(C)=C\C=C\[C@H](C)[C@H](O)[C@@H](C)[C@@H](O)[C@@H](C)[C@H](OC(C)=O)[C@@H]1C (stereo partly shown) [Analog 16j],,,,1 µM

# More lines, now with the values behind:
Compound,MIC (S. aureus NRS384 [1]),S. aureus Broth MIC (S. aureus NRS384 [1]),MIC (S. aureus NRS384 [3]),intracellular S. aureus killing capacity compared to rifampicin (in words) [2],MIC ([2]; 2 h with compound),"Intracellular killing MIC ([2]; lowest concentration that resulted in intracellular S. aureus eradication, 2 h with compound)",MIC [4]
CO[C@H]1/C=C/O[C@@]2(C)Oc3c(C)c(O)c4c(=O)c(c5oc6cc(OC7CCNCC7)ccc6nc-5c4c3C2=O)NC(=O)/C(C)=C\C=C\[C@H](C)[C@H](O)[C@@H](C)[C@@H](O)[C@@H](C)[C@H](OC(C)=O)[C@@H]1C [Analog 14],0.041 µM,,,increased intracellular S. aureus killing capacity compared to rifampicin,1 µM,,
"COc1ccc2nc3c4c5c6c(C)c(O)c4c(=O)c(c-3oc2c1)NC(=O)/C(C)=C\C=C\[C@H](C)[C@H](O)[C@@H](C)[C@@H](O)[C@@H](C)[C@H](OC(C)=O)[C@H](C)[C@@H](OC)/C=C/O[C@@](C)(O6)C5=O [Analog 1a, Rifamycin 4-MeO-Phenol Analogs]",0.014 µM,,,increased intracellular S. aureus killing capacity compared to rifampicin,1 µM,,
"CO[C@H]1/C=C/O[C@@]2(C)Oc3c(C)c(O)c4c(O)c(c(/C=N/N5CCN(C)CC5)c(O)c4c3C2=O)NC(=O)/C(C)=C\C=C\[C@H](C)[C@H](O)[C@@H](C)[C@@H](O)[C@@H](C)[C@H](OC(C)=O)[C@@H]1C [Rifampicin, rifampicin, reference compound]",,0.0046 µM,0.00391 µM,,,>1.0E−06,1 µM
"CO[C@H]1/C=C/O[C@@]2(C)Oc3c(C)c(O)c4c(=O)c(c5n(C)c6cc(O)ccc6nc-5c4c3C2=O)NC(=O)/C(C)=C\C=C\[C@H](C)[C@H](O)[C@@H](C)[C@@H](O)[C@@H](C)[C@H](OC(C)=O)[C@@H]1C [Analog 1d, Rifamycin 4-OH-Phenol N-Methyl analogs]",0.37 µM,,,,> 1 µM,,
"CO[C@H]1/C=C/O[C@@]2(C)Oc3c(C)c(O)c4c(=O)c(c5oc6cc(OCc7ccccc7)ccc6nc-5c4c3C2=O)NC(=O)/C(C)=C\C=C\[C@H](C)[C@H](O)[C@@H](C)[C@@H](O)[C@@H](C)[C@H](OC(C)=O)[C@@H]1C [Analog 1b, Rifamycin 4-BnO-Phenol Analogs]",0.12 µM,,,,> 1 µM,,
